In experiment [1] the target is T1, CCR1 (Homo sapiens, UniProt P32246).
T1 sequence (P32246 1-355): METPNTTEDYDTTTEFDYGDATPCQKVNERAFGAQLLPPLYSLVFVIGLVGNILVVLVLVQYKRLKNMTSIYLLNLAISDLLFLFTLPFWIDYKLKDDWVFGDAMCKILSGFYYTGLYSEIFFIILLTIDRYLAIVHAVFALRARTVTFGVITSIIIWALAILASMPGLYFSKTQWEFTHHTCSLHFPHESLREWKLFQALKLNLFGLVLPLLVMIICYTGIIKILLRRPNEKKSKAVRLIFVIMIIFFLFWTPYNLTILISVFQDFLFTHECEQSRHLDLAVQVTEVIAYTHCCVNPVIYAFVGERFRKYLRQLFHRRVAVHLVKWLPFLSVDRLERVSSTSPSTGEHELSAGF
Nature of the experiment: calcium flux in CCR1 transfected cells, Method B (Calcium 4 dye, HAMAMATSU FDSS6000). The experiment is classed as cell-based. To be noted: cells stably expressing recombinant CCR1 and G-alpha-16, MIP-1alpha at EC80. The method, then: (§1) Compounds are assessed for the ability to block the interaction of CCR1 and MIP-1α in a functional cellular assay measuring calcium flux in CCR1 transfected cells.
Method B: Non-adherent cells purchased from Chemicon Corporation (HTS005C), stably expressing recombinant CCR1 and G-alpha-16 are grown in RPMI 1640 medium (Mediatech 10-080-CM) supplemented with 10% FBS, 0.4 mg/mL Geneticin and penicillin/streptomycin. On the day of the assay, the cells are loaded with Calcium 4 dye (Molecular Devices R7448) with Probenecid (Invitrogen P346400) at 8E5 cells/mL for 1 hour at room temperature. After 1 hour, they are seeded in a 384-well tissue culture-treated plate at a density of 20,000 cells/well. Appropriately diluted test compound is added to the well to achieve a top concentration of 3,000 nM (diluted 4-fold with 10 doses total). The final concentration of DMSO is 1%. The buffer is HBSS (Invitrogen 14025) with 20 mM HEPES at pH 7.4. The cells incubate 30 minutes at 37 C and then 30 minutes at room temperature. The plates are transferred to the HAMAMATSU FDSS6000 where MIP-1alpha in 1% BSA is added at the EC80 final concentration. All plates must be read within 4 hours of the start of dye-loading. Wells+/−MIP-1alpha containing diluted DMSO instead of compound serve as the controls. Data are analyzed using Activity Base software.

The target in experiment [2] is T1, CCR1. In words: calcium flux in CCR1 transfected cells, Method A (Fluo-4 NW, FLIPR TETRA). The experiment is classed as cell-based. To be noted: cells stably expressing recombinant CCR1 and G-alpha-16, MIP-1 alpha at EC80. As to the method:
as §1
Method A: Non-adherent cells purchased from Chemicon Corporation (HTS005C), stably expressing recombinant CCR1 and G-alpha-16 are grown in RPMI 1640 medium (Mediatech 10-080-CM) supplemented with 10% heat-inactivated FBS, 0.4 mg/mL Geneticin and penicillin/streptomycin. On the day of the assay, the cells are transferred to a beaker and dye-loaded in bulk using a Fluo-4 NW Calcium Assay Kit with probenecid (Invitrogen F36205) at 0.8E6 cells/mL for 1 hour at room temperature. After 1 hour, they are seeded in a 384-well tissue culture-treated plate at a density of 20,000 cells/well. Appropriately diluted test compound is added to the well to achieve a top concentration of 3,000 nM (diluted 4-fold with 10 doses total). The final concentration of DMSO is 1%. The buffer is HBSS (Invitrogen 14025) with 20 mM HEPES at pH 7.4. The cells are allowed to incubate 1 hour in the dark at room temperature. The plates are transferred to the FLIPR TETRA where MIP-1 alpha in 1% BSA is added at the EC80 final concentration. Wells+/−MIP-1 alpha containing diluted DMSO instead of compound serve as the controls. Intracellular calcium flux is recorded on the FLIPR TETRA, using excitation at 470/495 nm and emission at 515/575 nm. Data are analyzed using Activity Base software.
A general note: Calcium assays in cells follow changes in intracellular calcium, usually with a dye or a luminescent sensor.

For orientation: IC50 means the concentration needed to halve the response being measured. As for `CCC[C@H](NC(=O)N1c2cnn(-c3ccc(F)cc3)c2CCC1C(F)(F)F)c1ccnc(S(C)(=O)=O)c1` (single isomer, unassigned) [Example 56], the IC50 at CCR1 [1] worked out at 6 nM; on CCR1 [2], 10 nM.

`CNS(=O)(=O)c1ccc(CNC(=O)N2CCCc3c2cnn3-c2ccc(F)cc2)cc1` [Example 22]: the results for the half-inhibitory concentration (IC50) at CCR1 [1] and at CCR1 [2] were 5 nM and 22 nM, respectively.

In the case of `CS(=O)(=O)c1cccc(CNC(=O)N2CCCc3c2cnn3-c2ccc(F)cc2)c1` [Example 23], the half-maximal inhibitory concentration (IC50) on CCR1 [1] amounted to 22 nM; on CCR1 [2], 31 nM.

Regarding `CCCC(NC(=O)N1CCCc2c1cnn2-c1ccc(F)cc1)c1cncc(S(C)(=O)=O)c1` (stereo not shown) [Example 24], on CCR1 [2], the IC50 is 0.6 nM.

For the compound `CS(=O)(=O)c1ccc(CNC(=O)N2CCCc3c2cnn3-c2ccc(F)cc2)cc1` [Example 25], the 50% inhibitory concentration (IC50) at CCR1 [1] was determined as 65 nM; on CCR1 [2], 51 nM.

For `COCCNS(=O)(=O)c1ccc(CNC(=O)N2CCCc3c2cnn3-c2ccc(F)cc2)cc1` [Example 26], the concentration for half-maximal inhibition (IC50) amounted to 4 nM at CCR1 [1] and 6 nM at CCR1 [2].

For the compound `O=C(NCc1ccc(S(=O)(=O)NC2CCOCC2)cc1)N1CCCc2c1cnn2-c1ccc(F)cc1` [Example 28, 1-(4-Fluorophenyl)-1,5,6,7-tetrahydro-pyrazolo[4,3-b]pyridine-4-carboxylic acid 4-(tetrahydro-pyran-4-ylsulfamoyl)-benzylamide], the IC50 is 10 nM on CCR1 [1] and 40 nM at CCR1 [2].

As for `CNS(=O)(=O)c1ccc(CNC(=O)N2CCCc3c2cnn3-c2ccc(F)cc2)c(Cl)c1` [Example 31], the IC50 stood at 1 nM at CCR1 [1] and 3 nM at CCR1 [2].

For the compound `CN(C)S(=O)(=O)c1cccc(CNC(=O)N2CCCc3c2cnn3-c2ccc(F)cc2)c1` [Example 33], on CCR1 [2], the IC50 worked out at 19 nM.

Consider `C[C@H](CO)NS(=O)(=O)c1ccc(CNC(=O)N2CCCc3c2cnn3-c2ccc(F)cc2)cc1` [Example 34], for which the IC50 at CCR1 [2] was 20 nM.

As to `C[C@@H](CO)NS(=O)(=O)c1ccc(CNC(=O)N2CCCc3c2cnn3-c2ccc(F)cc2)cc1` [Example 35], on CCR1 [2], the half-inhibitory concentration (IC50) was 4 nM.

On to `CCCC(NC(=O)N1CCCc2c1cnn2-c1ccc(F)cc1)c1ccc(S(C)(=O)=O)nc1` (stereo not shown) [Example 36], for which the IC50 at CCR1 [1] and on CCR1 [2] was 3 nM each time.

As to `CNS(=O)(=O)c1ccc(CNC(=O)N2CCCc3c2cnn3-c2ccc(F)cc2)c(F)c1` [Example 38], the results for the half-inhibitory concentration (IC50) at CCR1 [1] and on CCR1 [2] were 2 nM and 11 nM, respectively.

As for `CCCC(NC(=O)N1CCCc2c1cnn2-c1ccc(F)cc1)c1cncc(Br)c1` (stereo not shown) [Example 39], the IC50 on CCR1 [1] came out at 0.4 nM; on CCR1 [2], 0.2 nM.

Take `O=C(NCc1cc(Cl)cc(Cl)c1)N1CCCc2c1cnn2-c1ccc(F)cc1` [Example 40]: the figures for the IC50 at CCR1 [1] and at CCR1 [2] were 3 nM and 33 nM, respectively.

For `C[C@H](NC(=O)N1CCCc2c1cnn2-c1ccc(F)cc1)c1cncc(Br)c1` [Example 41], the IC50 at CCR1 [1] turned out to be 2 nM; at CCR1 [2], 6 nM.

Consider `CC[C@H](NC(=O)N1CCCc2c1cnn2-c1ccc(F)cc1)c1cncc(Br)c1` [Example 42], for which the IC50 worked out at 0.2 nM on CCR1 [1] and 0.4 nM at CCR1 [2].

In the case of `CC[C@H](NC(=O)N1CCCc2c1cnn2-c1ccc(F)cc1)c1cncc(S(C)(=O)=O)c1` [Example 45], the figures for the 50% inhibitory concentration (IC50) at CCR1 [1] and on CCR1 [2] were 0.6 nM and 1 nM, respectively.

Take `CCC[C@H](NC(=O)N1CCCc2c1cnn2-c1ccc(F)cc1)c1cncc(Br)c1` [Example 46]: the IC50 at CCR1 [1] and on CCR1 [2] was 0.2 nM throughout.

On to `CCC[C@H](NC(=O)N1CCCc2c1cnn2-c1ccc(F)cc1)c1cncc(S(C)(=O)=O)c1` [Example 47], for which the results for the half-maximal inhibitory concentration (IC50) at CCR1 [1] and at CCR1 [2] were 0.2 nM and 0.4 nM, respectively.

For the compound `CCC[C@H](NC(=O)N1c2cnn(-c3ccc(F)cc3)c2CCC1C(F)(F)F)c1cccc(S(C)(=O)=O)n1` (stereo partly shown) [Example 94], the concentration for half-maximal inhibition (IC50) on CCR1 [1] worked out at 57 nM.

As to `CCC[C@H](NC(=O)N1c2cnn(-c3ccc(F)cc3)c2CCC1C(F)(F)F)c1ccc(OC)c(S(C)(=O)=O)c1` (stereo partly shown) [Example 95], the IC50 on CCR1 [1] turned out to be 6 nM.

For the compound `CCC[C@H](NC(=O)N1c2cnn(-c3ccc(F)cc3)c2CCC1C(F)(F)F)c1ccc(O)c(S(C)(=O)=O)c1` (stereo partly shown) [Example 96], the IC50 at CCR1 [1] was 7 nM.

As to `CCC[C@H](NC(=O)N1c2cnn(-c3ccc(F)cc3)c2CCC1C(F)(F)F)c1ccc(OC)c(Br)c1` (stereo partly shown) [Example 97], the half-inhibitory concentration (IC50) at CCR1 [1] amounted to 5 nM.

In the case of `CCC[C@H](NC(=O)N1CCCc2c1c(C)nn2-c1ccc(F)cc1)c1ccnc(S(C)(=O)=O)c1` [Example 98], the IC50 on CCR1 [1] came out at 1570 nM.

In the case of `CCC[C@H](NC(=O)N1CCCc2c1c(C)nn2-c1ccc(F)cc1)c1cncc(S(C)(=O)=O)c1` [Example 99], the IC50 at CCR1 [1] came out at 1500 nM.

Regarding `CCC[C@H](NC(=O)N1CC(C)Cc2c1cnn2-c1ccc(F)cc1)c1ccnc(S(C)(=O)=O)c1` (stereo partly shown) [Example 102], the IC50 on CCR1 [1] turned out to be 0.6 nM.

In the case of `CCC[C@H](NC(=O)N1CC(C)(C)Cc2c1cnn2-c1ccc(F)cc1)c1ccnc(S(C)(=O)=O)c1` [Example 103], the concentration for half-maximal inhibition (IC50) on CCR1 [1] is 0.7 nM.

Consider `CCC[C@H](NC(=O)N1c2cnn(-c3ccc(F)cc3)c2CCC1C(F)(F)F)c1ccc(Br)c(OC)c1` (stereo partly shown) [Example 104], for which, at CCR1 [1], the half-maximal inhibitory concentration (IC50) was determined as 57 nM.

Regarding `CCC[C@H](NC(=O)N1c2cnn(-c3ccc(F)cc3)c2CCC1C(F)(F)F)c1ccc(S(C)(=O)=O)c(OC)c1` (stereo partly shown) [Example 105], the IC50 at CCR1 [1] worked out at 5 nM.

On to `CCC[C@H](NC(=O)N1c2cnn(-c3ccc(F)cc3)c2CCC1C(F)(F)F)c1ccc(S(C)(=O)=O)c(O)c1` (stereo partly shown) [Example 106], for which the half-maximal inhibitory concentration (IC50) at CCR1 [1] came out at 11 nM.

As to `CCC[C@H](NC(=O)N1c2cnn(-c3ccc(F)cc3)c2CCC1C)c1cccc(S(C)(=O)=O)n1` (stereo partly shown) [Example 107], the IC50 on CCR1 [1] was found to be 8 nM.

Turning to `CCC[C@H](NC(=O)N1c2cnn(-c3ccc(F)cc3)c2CC1C)c1ccnc(S(C)(=O)=O)c1` (stereo partly drawn) [Example 108, 1-(4-Fluorophenyl)-5-methyl-5,6-dihydro-1H-pyrrolo[3,2-c]pyrazole-4-carboxylic acid [(S)-1-(2-methanesulfonyl-pyridin-4-yl)-butyl]-amide], on CCR1 [1], the half-inhibitory concentration (IC50) was 9 nM.

Consider `CC[C@H](NC(=O)N1c2cnn(-c3ccc(F)cc3)c2CC1C)c1cccc(S(C)(=O)=O)c1` (stereo partly shown) [Example 109], for which the half-inhibitory concentration (IC50) on CCR1 [1] was 11 nM.

Consider `CCC[C@H](NC(=O)N1c2cnn(-c3ccc(F)cc3)c2CC[C@@H]1C)c1cncc(S(C)(=O)=O)c1` [Example 111], for which, at CCR1 [1], the IC50 amounted to 22 nM.

Consider `CCC[C@H](NC(=O)N1CC(C(=O)OCC)Cc2c1cnn2-c1ccc(F)cc1)c1ccnc(S(C)(=O)=O)c1` (stereo partly drawn) [Example 114, 1-(4-Fluorophenyl)-4-[(S)-1-(2-methanesulfonyl-pyridin-4-yl)-butylcarbamoyl]-4,5,6,7-tetrahydro-1H-pyrazolo[4,3-b]pyridine-6-carboxylic acid ethyl ester], for which the IC50 at CCR1 [1] turned out to be 0.7 nM.

As to `CCC[C@H](NC(=O)N1CC(C(=O)O)Cc2c1cnn2-c1ccc(F)cc1)c1ccnc(S(C)(=O)=O)c1` (stereo partly drawn) [Example 115, 1-(4-Fluorophenyl)-4-[(S)-1-(2-methanesulfonyl-pyridin-4-yl)-butylcarbamoyl]-4,5,6,7-tetrahydro-1H-pyrazolo[4,3-b]pyridine-6-carboxylic acid], the IC50 at CCR1 [1] came to 23 nM.

As for `CCC[C@H](NC(=O)N1CC(C(=O)NC)Cc2c1cnn2-c1ccc(F)cc1)c1ccnc(S(C)(=O)=O)c1` (stereo partly shown) [Example 116], the IC50 on CCR1 [1] stood at 1 nM.

As for `CCC[C@H](NC(=O)N1CC(C(=O)NCCO)Cc2c1cnn2-c1ccc(F)cc1)c1ccnc(S(C)(=O)=O)c1` (stereo partly shown) [Example 117], the concentration for half-maximal inhibition (IC50) at CCR1 [1] came out at 1 nM.

The values above are taken from patent publication US8546442B2, “Pyrazolopiperidine compounds as CCR1 receptor antagonists” (Boehringer Ingelheim International GmbH, priority 2010, dated 2013).
